Measurements as given in ChEMBL document CHEMBL1153916, “Lithospermic acid derivatives from Lithospermum erythrorhizon increased expression of serine palmitoyltransferase in human HaCaT cells” (Bioorg Med Chem Lett, 2009).
Calls of active or inactive are those of the source. No cut-off for these calls is given here.

Legend:
HaCaT [1] = experiment: Activation of NF-kappaB expressed in human HaCaT cells by luciferase reporter gene assay; format: cell-based
HaCaT [2] = experiment: Increase in serine palmitoyltransferase 2 mRNA expression in human HaCaT cells by RT-PCR relative to untreated control; format: functional
HaCaT [3] = experiment: Increase in serine palmitoyltransferase protein expression in human HaCaT cells at 30 ug/mL by Western blot relative to untreated control; format: functional
HaCaT [4] = experiment: Cytotoxicity against human HaCaT cells at 50 to 200 ug/mL by MTT assay; format: cell-based
HaCaT [5] = experiment: Effect on p65 nuclear expression in human HaCaT cells at 100 ug/mL after 12 hrs by Western blot; format: functional, cell-based
HaCaT [6] = experiment: Increase in serine palmitoyltransferase 1 mRNA expression in human HaCaT cells by RT-PCR relative to untreated control; format: functional
HaCaT [7] = experiment: Increase in serine palmitoyltransferase protein expression in human HaCaT cells at 100 ug/mL by Western blot relative to untreated control; format: functional

Row | SMILES | Activity (HaCaT [1]) | Activity (HaCaT [2]) [%] | Activity (HaCaT [3]) [%] | Activity (HaCaT [4]) | Activity (HaCaT [5]) | Activity (HaCaT [6]) [%] | Activity (HaCaT [7]) [%]
1 | O=C(/C=C/c1ccc(O)c2c1[C@H](C(=O)O)[C@@H](c1ccc(O)c(O)c1)O2)O[C@H](Cc1ccc(O)c(O)c1)C(=O)O [LITHOSPERMIC ACID] | inactive | 151 | 21.7 | Non-toxic | inactive | 121 | 55
2 | COC(=O)[C@H]1c2c(/C=C/C(=O)O[C@H](Cc3ccc(O)c(O)c3)C(=O)O)ccc(O)c2O[C@@H]1c1ccc(O)c(O)c1 | inactive | 139 | 8.9 | Non-toxic | inactive | 139 | 23
3 | NC(=O)c1cccnc1 [NIACINAMIDE] |  | 128 |  |  |  | 127 | 57.3
4 | COC(=O)[C@@H](Cc1ccc(O)c(O)c1)OC(=O)/C=C/c1ccc(O)c2c1[C@H](C(=O)O)[C@@H](c1ccc(O)c(O)c1)O2 | inactive | 159 | 20.2 | Non-toxic | inactive | 148 | 81
